Laboratory results reported in ChEMBL document CHEMBL4842340, “Development of Cagrilintide, a Long-Acting Amylin Analogue” (J Med Chem, 2021).
Converted amounts (≈) assume the structure as drawn. *1 amine or outer side, *2 acyl side, *3 side chain or, on linkers, in order; H or OH if unused. Where a SMILES comes first, the peptide text is derived from it. Bridges are numbered along the chain shown (N, C = ends). [ ]: non-standard residue; d: D form. The star is where a group is joined. X1 = O=C(NC(=O)[C@H](Cc1cnc[nH]1)N[*:1])[C@@H](Cc1cnc[nH]1)C(=O)[*:2]; C20 diacid = O=C(O)CCCCCCCCCCCCCCCCCCC(=O)*; γGlu = O=C(O)[C@H](CCC(=O)[*:2])N[*:1]; hArg = N=C(N)NCCCC[C@H](N)C(=O)O; Agb = N=C(N)NCC[C@H](N)C(=O)O

What was measured:
Rattus norvegicus [1] = experiment: Reduction in food intake in Sprague-Dawley rat at 30 nmol/kg, sc administered as single dose measured upto 24 hrs relative to control; format: functional; design: scale not given: the % may be the effect or the level left; settings: time hrs <=24
[2] = Solubility of the compound in lactate at pH 5 by UPLC analysis; format: physicochemical; settings: lactate buffer
[3] = Solubility of the compound in lactate at pH 4 by UPLC analysis; format: physicochemical; settings: lactate buffer
Homo sapiens = species on record: Homo sapiens; experiment: Ratio of EC50 for human calcitonin receptor expressed in BHK570 cells to EC50 for human AMY3R (CT+RAMP3) expressed in Hollex1 cells; format: cell-based
Insulin (Homo sapiens) [4] = target: Insulin (Homo sapiens) (UniProt P01308); experiment: Effect on insulin (unknown origin) amyloid fibril formation assessed as peptide recovery in glycyl-glycine buffer at pH 4 measured after 45 hrs by thioflavin-T fluorescence assay relative to control; design: concentration or dose not given beside the values
Rattus norvegicus [5] = experiment: Reduction in food intake in Sprague-Dawley rat at 30 nmol/kg, sc administered as single dose measured after 24 to 48 hrs relative to control; format: functional; design: scale not given: the % may be the effect or the level left; settings: time 24-48 hrs
[6] = Solubility of the compound in lactate at pH 3 by UPLC analysis; format: physicochemical; settings: lactate buffer
Rattus norvegicus [7] = species on record: Rattus norvegicus; experiment: Ratio of EC50 for rat calcitonin receptor expressed in BHK-13 cells to EC50 for rat AMY3R (CT+RAMP3) expressed in tk-ts13 cells; format: cell-based
Insulin (Homo sapiens) [8] = target: Insulin (Homo sapiens) (UniProt P01308); experiment: Effect on insulin (unknown origin) amyloid fibril formation assessed as lag time in glycyl-glycine buffer at pH 4 measured after 45 hrs by thioflavin-T fluorescence assay
[9] = Agonist activity at human calcitonin receptor expressed in BHK570 cells assessed as increase in intracellular cAMP concentration incubated for 3 hrs in absence of albumin by CRE luciferase reporter gene assay; format: cell-based; settings: BHK570, 3 h
[10] = Solubility of the compound in bis-tris propane at pH 6 by UPLC analysis; format: physicochemical; settings: bis-tris propane buffer
[11] = Solubility of the compound in bis-tris propane at pH 8 by UPLC analysis; format: physicochemical; settings: bis-tris propane buffer
[12] = Displacement of [125I]-amylin from human AMY3R (CTR+RAMP3) expressed in BHK-13 cells measured after 120 mins by scintillation proximity assay; format: cell-based
[13] = Solubility of the compound in bis-tris propane at pH 6.5 by UPLC analysis; format: physicochemical; settings: bis-tris propane buffer
[14] = Agonist activity at rat calcitonin receptor expressed in BHK-13 cells assessed as increase in intracellular cAMP concentration incubated for 25 mins by CRE luciferase reporter gene assay; format: cell-based; settings: BHK-13, 25 min
[15] = Solubility of the compound in bis-tris propane at pH 7.5 by UPLC analysis; format: physicochemical; settings: bis-tris propane buffer
[16] = Agonist activity at human AMY3R (CT+RAMP3) expressed in Hollex1 cells incubated for 3 hrs by luminescence assay; format: cell-based; settings: Hollex1, 3 h
[17] = Agonist activity at rat AMY3R (CT+RAMP3) expressed in tk-ts13 cells assessed as increase in intracellular cAMP level incuabted for 25 mins by CRE luciferase reporter gene assay; format: cell-based; settings: tk-ts13, 25 min
[18] = Solubility of the compound in bis-tris propane at pH 7 by UPLC analysis; format: physicochemical; settings: bis-tris propane buffer

Chain of Insulin (Homo sapiens) (P01308 whole entry): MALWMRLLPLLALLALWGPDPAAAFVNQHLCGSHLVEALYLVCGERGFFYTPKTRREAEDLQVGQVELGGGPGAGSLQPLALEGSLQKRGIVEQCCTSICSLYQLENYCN

solubility [2] [µM] | solubility [3] [µM] | Activity (Insulin (Homo sapiens) [4]) [%] | solubility [6] [µM] | TIME (Insulin (Homo sapiens) [8]) [h] | EC50 [9] [nM] | solubility [10] [µM] | solubility [11] [µM] | IC50 [12] [nM] | solubility [13] [µM] | EC50 [14] [nM] | solubility [15] [µM] | EC50 [16] [nM] | EC50 [17] [nM] | solubility [18] [µM] | Structure (SMILES) | Activity (Rattus norvegicus [1]) [%] | Ratio EC50 (Homo sapiens) | Activity (Rattus norvegicus [5]) [%] | Ratio EC50 (Rattus norvegicus [7])
200 (≈ 948 µg/mL) | 200 (≈ 948 µg/mL) | 7 | 200 (≈ 948 µg/mL) | 7 | 0.961 | 200 (≈ 948 µg/mL) | 19 (≈ 90 µg/mL) | 1.29 | 115 (≈ 545 µg/mL) | 18.4 | 5 (≈ 23.7 µg/mL) | 0.095 | 1.03 | 7 (≈ 33.2 µg/mL) | CC[C@H](C)[C@H](NC(=O)[C@@H]1CCCN1C(=O)CNC(=O)[C@H](Cc1ccccc1)NC(=O)[C@H](CC(N)=O)NC(=O)[C@H](CC(N)=O)NC(=O)[C@H](CO)NC(=O)[C@H](CO)NC(=O)[C@H](Cc1cnc[nH]1)NC(=O)[C@H](Cc1cnc[nH]1)NC(=O)[C@H](CC(C)C)NC(=O)[C@H](Cc1ccccc1)NC(=O)[C@H](CC(N)=O)NC(=O)[C@H](C)NC(=O)[C@H](CC(C)C)NC(=O)[C@H](CCNC(=N)N)NC(=O)[C@H](CCC(N)=O)NC(=O)[C@@H](NC(=O)[C@H](C)NC(=O)[C@@H]1CSSC[C@H](NC(=O)[C@H](Cc2cnc[nH]2)NC(=O)[C@H](Cc2cnc[nH]2)C(=O)NC(=O)[C@H](Cc2cnc[nH]2)NC(=O)CC[C@H](NC(=O)CCCCCCCCCCCCCCCCCCC(=O)O)C(=O)O)C(=O)N[C@@H](CC(N)=O)C(=O)N[C@@H]([C@@H](C)O)C(=O)N[C@@H](C)C(=O)N[C@@H]([C@@H](C)O)C(=O)N1)[C@@H](C)O)C(=O)N[C@@H](CC(C)C)C(=O)N1CCC[C@H]1C(=O)N1CCC[C@H]1C(=O)N[C@H](C(=O)N[C@@H](CC(N)=O)C(=O)N[C@H](C(=O)NCC(=O)N[C@@H](CO)C(=O)N[C@@H](CC(N)=O)C(=O)N[C@H](C(=O)N[C@@H](Cc1ccc(O)cc1)C(N)=O)[C@@H](C)O)C(C)C)[C@@H](C)O ({C20 diacid-γGlu}-[X1]HCNTATCATQ[Agb]LANFLHHSSNNFGPILPPTNVGSNTY-NH2; disulfide 3-8) | 28 | 10 | 0 | 18
200 (≈ 953 µg/mL) | 200 (≈ 953 µg/mL) | 21 | 200 (≈ 953 µg/mL) | 4 | 0.391 | 200 (≈ 953 µg/mL) | 25 (≈ 119 µg/mL) | 1.11 | 50 (≈ 238 µg/mL) | 4.48 | 7 (≈ 33.4 µg/mL) | 0.102 | 0.321 | 2 (≈ 9.53 µg/mL) | CC[C@H](C)[C@H](NC(=O)[C@@H]1CCCN1C(=O)CNC(=O)[C@H](Cc1ccccc1)NC(=O)[C@H](CC(N)=O)NC(=O)[C@H](CC(N)=O)NC(=O)[C@H](CO)NC(=O)[C@H](CO)NC(=O)[C@H](Cc1cnc[nH]1)NC(=O)[C@H](Cc1cnc[nH]1)NC(=O)[C@H](CC(C)C)NC(=O)[C@H](Cc1ccccc1)NC(=O)[C@H](CC(N)=O)NC(=O)[C@H](C)NC(=O)[C@H](CC(C)C)NC(=O)[C@H](CCCCNC(=N)N)NC(=O)[C@H](CCC(N)=O)NC(=O)[C@@H](NC(=O)[C@H](C)NC(=O)[C@@H]1CSSC[C@H](NC(=O)[C@H](Cc2cnc[nH]2)NC(=O)[C@H](Cc2cnc[nH]2)C(=O)NC(=O)[C@H](Cc2cnc[nH]2)NC(=O)CC[C@H](NC(=O)CCCCCCCCCCCCCCCCCCC(=O)O)C(=O)O)C(=O)N[C@@H](CC(N)=O)C(=O)N[C@@H]([C@@H](C)O)C(=O)N[C@@H](C)C(=O)N[C@@H]([C@@H](C)O)C(=O)N1)[C@@H](C)O)C(=O)N[C@@H](CC(C)C)C(=O)N1CCC[C@H]1C(=O)N1CCC[C@H]1C(=O)N[C@H](C(=O)N[C@@H](CC(N)=O)C(=O)N[C@H](C(=O)NCC(=O)N[C@@H](CO)C(=O)N[C@@H](CC(N)=O)C(=O)N[C@H](C(=O)N[C@@H](Cc1ccc(O)cc1)C(N)=O)[C@@H](C)O)C(C)C)[C@@H](C)O ({C20 diacid-γGlu}-[X1]HCNTATCATQ[hArg]LANFLHHSSNNFGPILPPTNVGSNTY-NH2; disulfide 3-8) | 24 | 4 | 2 | 7
